In US6541631B1, “Methods of separating FTC isomers and derivatives thereof” (Pharma-Eco Laboratories, Inc., priority 1999, dated 2003) one finds Solubility data, which are given here for two compounds.

The series in a line: Solubility of cis-FTC Ester and cis-FTC Alcohol in various solvent systems. It counts as physicochemical. As for the experimental part: Therefore, the solubility of the FTC ester in several solvent systems was determined.
Therefore, the solubility of the cis-FTC Alcohol in several solvent systems was determined.

Consider `CCCC(=O)OC[C@@H]1O[C@H](n2cc(F)c(N)nc2=O)CS1` (relative stereo) [cis-FTC Ester, cis-{5-(4-amino-5-fluoro-2-oxo-1(2H)-pyrimidinyl)-1,3-oxathiolan-2-yl}methyl butanoate], for which the Solubility was found to be 3.59% (20% isopropyl alcohol/80% water, 40-45° C.); 9.03% (50% ethanol/50% methanol, 20° C.); 2.40% (70% water/30% 2-propanol, 20° C.); 5.39% (70% water/30% 2-propanol, 35° C.); 3.16% (74.6% water/13.99% 2-propanol/11.41% butanol, 20° C.); 10.5% (74.6% water/13.99% 2-propanol/11.41% butanol, 35° C.). For the same compound, the Solubility is, setting by setting: (80% water/5.5% 2-propanol/14.5% butanol, 20° C.) 2.55%; (80% water/10% 2-propanol/10% butanol, 20° C.) 2.27%; (80% water/10% 2-propanol/10% butanol, 35° C.) 5.94%; (80% water/15% 2-propanol/5% butanol, 20° C.) 2.57%; (80% water/15% 2-propanol/5% tetrahydrofuran, 20° C.) 0.89%; (80% water/20% 2-butanol, 20° C.) 3.00%. The compound also returned a Solubility (80% water/20% 2-propanol, 20° C.) of 1.60%; a Solubility (80% water/20% 2-propanol, 35° C.) of 3.80%; a Solubility (80% water/20% ethanol, 20° C.) of 0.52%; a Solubility (80% water/20% methanol, 20° C.) of 0.81%; a Solubility (80% water/20% tetrahydrofuran, 20° C.) of 1.80%; a Solubility (85% water/10% 2-propanol/5% tetrahydrofuran, 20° C.) of 0.64%. In addition, the Solubility (85% water/15% 2-propanol, 35° C.) came out at 0.70%; the Solubility (85% water/15% dimethylformamide, 20° C.) amounted to 1.24%; the Solubility (90% water/10% dimethylformamide, 20° C.) was found to be 1.13%; the Solubility (95% water/5% dimethylformamide, 20° C.) turned out to be 0.47%; the Solubility (100% 2-propanol, 35° C.) worked out at 2.68%; the Solubility (100% acetonitrile, 40-45 C) was 3.85%. The compound also had a Solubility (100% acetonitrile, 50° C.) of 6.20%; a Solubility (100% acetonitrile, RT) of 1.41%; a Solubility (100% ethanol, 20° C.) of 4.36%; a Solubility (100% ethanol, RT, 40-45 C) of 1.28%; a Solubility (100% ethyl acetate, 20° C.) of 3.03%??; a Solubility (100% isopropyl alcohol, RT, 40-45° C.) of 0.38%. The Solubility (100% methanol, 20° C.) stood at 11.73%.

For the compound `Nc1nc(=O)n([C@@H]2CS[C@H](CO)O2)cc1F` (relative stereo) [cis-FTC Alcohol, cis-5-fluoro-1-{2-(hydroxymethyl)-1,3-oxathiolan-5-yl}cytosine], the Solubility runs as follows: (100% acetonitrile, RT) 0.38%; (100% ethanol, RT) 0.51%; (100% isopropyl alcohol, RT) 0.38%; (100% methanol, 40-45° C.) 3.21%; (100% methanol, RT) 0.77%; (100% water, RT) 0.37%.
